This is an account of results in ChEMBL document CHEMBL1201862, “PubChem BioAssay data set” (2004).

Structures are written as SMILES. Values joined by “and” are separate entries in the source; they are usually repeats but may differ in a detail not shown here. Equal values may be shown once. Active and inactive are the calls of the source.

Among the targets are Cytochrome P450 2D6 (Homo sapiens, UniProt P10635); Cytochrome P450 2C9 (Homo sapiens, UniProt P11712); Cytochrome P450 3A4 (Homo sapiens, UniProt P08684).
Test [1] addresses T1, RNA-binding protein pos-1 (Caenorhabditis elegans, UniProt G5EF15).
T1 sequence (G5EF15 whole entry): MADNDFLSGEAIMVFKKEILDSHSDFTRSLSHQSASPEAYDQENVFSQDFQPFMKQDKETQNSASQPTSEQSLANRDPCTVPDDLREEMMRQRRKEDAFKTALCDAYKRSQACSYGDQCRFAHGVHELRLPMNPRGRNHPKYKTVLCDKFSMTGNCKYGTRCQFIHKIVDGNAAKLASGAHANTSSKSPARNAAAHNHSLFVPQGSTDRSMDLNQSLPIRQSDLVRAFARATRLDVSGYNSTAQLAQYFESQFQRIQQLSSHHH
Briefly: inhibitors of POS-1/mex-3 RNA binding, dose response, biochemical, fluorescence polarization (AID 1964).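 Also: purified POS-1 fused to maltose binding protein made in E. coli; potency of compounds blocking POS-1 binding to fluorescent RNA.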

Test [2] concerns the target T2, Zinc finger protein mex-5 (Caenorhabditis elegans, UniProt Q9XUB2).
T2 sequence (Q9XUB2 whole entry): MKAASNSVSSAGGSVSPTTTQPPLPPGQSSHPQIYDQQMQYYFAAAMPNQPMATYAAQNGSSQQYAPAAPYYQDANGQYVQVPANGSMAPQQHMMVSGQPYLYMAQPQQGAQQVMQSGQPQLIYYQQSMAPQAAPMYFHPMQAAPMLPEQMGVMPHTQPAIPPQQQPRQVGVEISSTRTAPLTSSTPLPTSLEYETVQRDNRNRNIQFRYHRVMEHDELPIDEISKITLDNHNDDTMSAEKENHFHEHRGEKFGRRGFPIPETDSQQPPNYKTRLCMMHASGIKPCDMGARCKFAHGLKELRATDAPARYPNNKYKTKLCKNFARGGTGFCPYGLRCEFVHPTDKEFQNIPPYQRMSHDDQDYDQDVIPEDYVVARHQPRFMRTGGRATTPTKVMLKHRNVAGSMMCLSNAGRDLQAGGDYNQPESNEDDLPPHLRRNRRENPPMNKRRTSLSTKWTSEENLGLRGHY
Briefly: MEX-5/TCR-2 RNA interaction inhibitors, dose response, biochemical, C. elegans, fluorescence polarization (AID 1960).

The nature of test [3]: inhibitors of SNCA 5'UTR-driven reporter translation, confirmation, H4 neuroglioma cells, luminescence (AID 1988). It counts as functional, cell-based.
The nature of test [4]: inhibitors of firefly luciferase expression or activity, dose response, H4 neuroglioma cells, luminescence (AID 1990). The format is functional, cell-based.
In the next test the target is Cytochrome P450 2C19 (Homo sapiens, UniProt P33261). The test can be described thus: Cytochrome panel assay with activity outcomes. Panel member name: p450-cyp2c19 Compounds with AC50 equal or less than 10 uM are considered active. The note with it: read-out: AC50. The format is functional.
Chain of Cytochrome P450 2C19 (P33261 whole entry): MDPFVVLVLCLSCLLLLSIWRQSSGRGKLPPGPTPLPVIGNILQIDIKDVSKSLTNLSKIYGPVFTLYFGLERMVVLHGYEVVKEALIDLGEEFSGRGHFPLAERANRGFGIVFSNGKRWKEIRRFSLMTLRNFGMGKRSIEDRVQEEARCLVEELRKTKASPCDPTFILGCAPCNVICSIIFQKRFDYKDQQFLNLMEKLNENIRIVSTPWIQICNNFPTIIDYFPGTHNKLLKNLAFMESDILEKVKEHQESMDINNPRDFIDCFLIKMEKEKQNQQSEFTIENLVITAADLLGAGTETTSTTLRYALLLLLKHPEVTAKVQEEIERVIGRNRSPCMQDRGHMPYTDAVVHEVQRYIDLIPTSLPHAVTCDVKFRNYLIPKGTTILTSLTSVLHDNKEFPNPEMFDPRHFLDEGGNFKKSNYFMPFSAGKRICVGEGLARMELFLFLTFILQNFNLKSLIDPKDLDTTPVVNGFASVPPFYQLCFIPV
For another test, the target named is T3, Cytochrome P450 1A2 (Homo sapiens, UniProt P05177).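 Also: PubChem cytochrome P450 panel assay, CYP1A2 panel member.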
T3 sequence (P05177 whole entry): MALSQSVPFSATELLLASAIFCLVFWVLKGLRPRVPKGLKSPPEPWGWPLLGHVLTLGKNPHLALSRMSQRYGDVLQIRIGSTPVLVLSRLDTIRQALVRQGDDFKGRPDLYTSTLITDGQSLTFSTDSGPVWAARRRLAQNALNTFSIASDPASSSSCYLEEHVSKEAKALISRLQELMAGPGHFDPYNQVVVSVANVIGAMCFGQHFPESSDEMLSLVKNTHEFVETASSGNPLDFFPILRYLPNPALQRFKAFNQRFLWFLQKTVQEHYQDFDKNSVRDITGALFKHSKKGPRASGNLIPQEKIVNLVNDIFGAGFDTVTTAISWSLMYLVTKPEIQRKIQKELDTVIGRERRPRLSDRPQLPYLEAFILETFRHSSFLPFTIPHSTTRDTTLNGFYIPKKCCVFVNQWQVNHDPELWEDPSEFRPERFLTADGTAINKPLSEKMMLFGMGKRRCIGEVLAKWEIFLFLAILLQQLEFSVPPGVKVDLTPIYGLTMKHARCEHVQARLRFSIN

Test [5] addresses T4, Heat shock factor protein 1 (Mus musculus, UniProt P38532).
T4 sequence (P38532 whole entry): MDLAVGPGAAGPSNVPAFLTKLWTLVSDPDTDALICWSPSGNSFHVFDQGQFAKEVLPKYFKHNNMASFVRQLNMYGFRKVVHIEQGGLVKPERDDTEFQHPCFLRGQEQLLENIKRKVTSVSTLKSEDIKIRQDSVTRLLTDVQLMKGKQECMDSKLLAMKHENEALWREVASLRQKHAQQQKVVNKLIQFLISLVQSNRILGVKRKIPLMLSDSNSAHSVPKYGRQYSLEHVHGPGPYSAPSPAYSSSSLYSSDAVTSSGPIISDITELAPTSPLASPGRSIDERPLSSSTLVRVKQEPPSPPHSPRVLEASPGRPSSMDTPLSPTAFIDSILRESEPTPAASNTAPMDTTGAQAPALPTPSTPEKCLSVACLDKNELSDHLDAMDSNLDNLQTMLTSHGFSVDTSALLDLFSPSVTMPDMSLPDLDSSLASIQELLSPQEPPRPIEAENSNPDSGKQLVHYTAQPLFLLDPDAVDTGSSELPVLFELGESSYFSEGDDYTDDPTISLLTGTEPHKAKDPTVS
Briefly: HSF1 potentiators in luciferase reporter cells, confirmation, cell-based, NIH3T3, luminescence, dose retest (AID 435004).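 Also: stress induced by proteasome inhibitor MG132 added 30 min after compound; luciferase reporter driven by HSF1 response element in NIH3T3 cells; actives raise luminescence as potentiators of the MG132 stress response.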 It counts as functional. A general note: A reporter such as luciferase makes a cellular process visible.

Chain of Cytochrome P450 3A4 (P08684 whole entry): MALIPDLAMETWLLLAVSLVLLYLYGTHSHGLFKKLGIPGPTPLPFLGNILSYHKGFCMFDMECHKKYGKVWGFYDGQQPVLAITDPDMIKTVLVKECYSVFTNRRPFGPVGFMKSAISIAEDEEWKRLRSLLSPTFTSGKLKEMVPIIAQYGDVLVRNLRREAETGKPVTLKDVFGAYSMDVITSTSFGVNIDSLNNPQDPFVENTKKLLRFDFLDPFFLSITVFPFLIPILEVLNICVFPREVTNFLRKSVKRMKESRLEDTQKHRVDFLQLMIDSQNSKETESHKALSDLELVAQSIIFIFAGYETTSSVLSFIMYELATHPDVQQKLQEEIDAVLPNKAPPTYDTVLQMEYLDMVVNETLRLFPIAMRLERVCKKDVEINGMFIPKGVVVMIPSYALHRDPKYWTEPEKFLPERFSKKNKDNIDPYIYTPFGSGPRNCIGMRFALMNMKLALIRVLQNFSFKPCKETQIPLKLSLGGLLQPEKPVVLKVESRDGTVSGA
Chain of Cytochrome P450 2D6 (P10635 whole entry): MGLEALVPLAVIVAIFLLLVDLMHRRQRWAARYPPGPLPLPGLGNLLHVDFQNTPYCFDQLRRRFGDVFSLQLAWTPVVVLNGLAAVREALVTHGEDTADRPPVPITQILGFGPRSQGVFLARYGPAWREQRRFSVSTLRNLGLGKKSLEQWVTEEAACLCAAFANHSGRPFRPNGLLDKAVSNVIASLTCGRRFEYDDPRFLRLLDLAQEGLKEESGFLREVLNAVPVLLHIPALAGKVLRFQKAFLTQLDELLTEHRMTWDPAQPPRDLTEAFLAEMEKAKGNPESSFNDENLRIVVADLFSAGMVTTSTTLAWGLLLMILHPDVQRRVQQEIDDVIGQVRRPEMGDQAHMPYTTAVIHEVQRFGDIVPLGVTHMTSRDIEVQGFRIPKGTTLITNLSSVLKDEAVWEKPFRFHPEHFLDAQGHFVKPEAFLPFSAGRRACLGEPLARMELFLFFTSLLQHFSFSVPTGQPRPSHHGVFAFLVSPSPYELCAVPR
Chain of Cytochrome P450 2C9 (P11712 whole entry): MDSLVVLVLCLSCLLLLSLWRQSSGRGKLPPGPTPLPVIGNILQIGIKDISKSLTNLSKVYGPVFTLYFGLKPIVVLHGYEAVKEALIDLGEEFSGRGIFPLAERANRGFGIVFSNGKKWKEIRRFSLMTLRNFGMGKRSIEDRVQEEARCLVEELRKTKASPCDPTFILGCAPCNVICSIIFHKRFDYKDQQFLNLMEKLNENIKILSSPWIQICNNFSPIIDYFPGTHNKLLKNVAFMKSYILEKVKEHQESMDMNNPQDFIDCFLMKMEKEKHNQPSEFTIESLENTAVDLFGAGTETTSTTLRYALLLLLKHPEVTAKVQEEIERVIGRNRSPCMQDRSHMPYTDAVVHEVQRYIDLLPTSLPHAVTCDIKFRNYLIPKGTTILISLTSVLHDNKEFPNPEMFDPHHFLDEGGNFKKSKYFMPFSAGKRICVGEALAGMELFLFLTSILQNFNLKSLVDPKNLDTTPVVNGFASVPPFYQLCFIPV

As for `CCCCC1=CC2=C(c3ccco3)C(=O)C(C)(OC(=O)c3ccc(OC)cc3)C(=O)C2=CN1CCN1CCOCC1` (centres undefined), the EC50 in test [1] is 95.7 µM (active); in test [2], 42.2 µM (active).
For `O=C(CN1CCOCC1)Nc1cccc(Cl)c1Cl`, the EC50 in test [3] and in test [4] was > 120 µM (not active) throughout.
As to `O=C(c1cccc(F)c1)N1CCC[C@@]2(CCN(C(c3ccccc3)c3ccccc3)C2)C1`, at Cytochrome P450 2D6, the half-maximal activity concentration (AC50) is 12.6 µM (inconclusive).
As for `CCN(CCCl)Cc1ccccc1Br`, the AC50 was 12.6 µM (inconclusive) on Cytochrome P450 2D6, 39.8 µM (inconclusive) on Cytochrome P450 2C19 and 15.8 µM (inconclusive) at Cytochrome P450 1A2.
As for `CC1C2(C)OC(=N)C(C#N)(C(C)O2)C1(C#N)C#N` (centres undefined), the EC50 in [1] was > 300 µM (not active); in test [2], 16 µM (active).
`CN(Cc1ccco1)c1ncncc1-c1ccccc1C(F)(F)F`: the half-maximal activity concentration (AC50) is 20 µM (inconclusive) on Cytochrome P450 2D6 and 12.6 µM (inconclusive) on Cytochrome P450 1A2.
Consider `Cc1cccc(C)c1NC(=O)/C(C#N)=C/c1cccs1`, for which the AC50 at Cytochrome P450 2D6 is 6.31 µM (inconclusive).
On the same count and under the same terms, under `C[N+]1(NCC[N@@+]2(C)CCc3ccccc3C2)CCCCC1` stands 1.58 µM (inconclusive).
On to `O=C(C1CCC(=O)N1Cc1ccccc1Cl)N1CCN(c2ccc(F)cc2)CC1` (centres undefined), for which the concentration at half-maximal activity (AC50) on Cytochrome P450 2D6 was 15.8 µM (inconclusive); at Cytochrome P450 2C19, 20 µM (inconclusive); at Cytochrome P450 2C9 it was 25.1 µM (inconclusive); at Cytochrome P450 1A2, 2.51 µM (inconclusive); at Cytochrome P450 3A4 it was 12.6 µM (inconclusive).
Regarding `COc1ccccc1-c1cncnc1NCc1cccnc1`, the AC50 on Cytochrome P450 2D6 is 39.8 µM (inconclusive).
Consider `O/C(=C(\C([S-])=NCc1ccco1)[n+]1ccccc1)c1ccccc1Br`, for which the concentration giving a half-maximal response (EC50) in test [1] is > 300 µM (not active); in test [2], 58.4 µM (active).
Regarding `CCn1c(SCc2cccc(C)c2)nnc1-c1ccccc1`, the half-maximal activity concentration (AC50) is 15.8 µM (inconclusive) at Cytochrome P450 2D6, 35.5 µM (inconclusive) at Cytochrome P450 2C9 and 3.16 µM (inconclusive) on Cytochrome P450 3A4.
For the compound `COc1ccc(NC(=O)CSc2nc(C)c3c(c2C#N)CCCC3)cc1`, the AC50 was 2.24 µM (inconclusive) on Cytochrome P450 2D6 and 8.91 µM (inconclusive) on Cytochrome P450 2C9.
With `COc1ccc(OC)c(S(=O)(=O)NC2CCN(Cc3ccccc3)CC2)c1`, the EC50 in test [1] and in test [2] was > 300 µM (not active) in each case.
In the case of `O=c1cnc2cnc(N3CCOCC3)nc2n1Cc1cccs1`, the concentration at half-maximal activity (AC50) on Cytochrome P450 2D6 is 25.1 µM (inconclusive); on Cytochrome P450 2C19, 31.6 µM (inconclusive); on Cytochrome P450 2C9 it was 31.6 µM (inconclusive); at Cytochrome P450 3A4 it was 15.8 µM (inconclusive).
For `COc1ccc2c(c1)C1C=CCC1C(c1cc3c(cc1Br)OCO3)N2` (centres undefined), the EC50 is > 300 µM (not active) in test [1] and 47.9 µM (active) in test [2].
Taken in the same sequence, the figures for `Cc1c(N/C=C2\C(=O)NC(=O)N(Cc3ccco3)C2=O)c(=O)n(-c2ccccc2)n1C` were > 300 µM (not active) and > 300 µM (not active).
The matching figures for `Cc1cccc(C)c1NC(=O)NN=C1CCCCC1`: > 300 µM (not active) and > 300 µM (not active).
For the compound `COc1cccc(NC(=O)c2ccccc2Br)c1`, the EC50 in test [1] and in test [2] was > 300 µM (not active) throughout.
On to `Cc1cc(/C=C2\C(=O)NC(=O)N(c3ccc(F)cc3)C2=O)c(C)n1-c1ccc(C(=O)O)cc1`, for which the half-maximal effective concentration (EC50) in test [1] and in test [2] was > 300 µM (not active) each time.
On to `COc1cc(OC)cc(C(=O)NC(=S)NCCc2ccccc2)c1`, for which the AC50 at Cytochrome P450 2D6 is 10 µM (inconclusive).
With `CSC(=Nc1cccc(Cl)c1C)NS(=O)(=O)c1cccs1`, the EC50 in test [1] and in test [2] was > 300 µM (not active) throughout.
As for `CN/C(=N/C#N)NCCSC[C@H]1N=CN=C1C`, the half-maximal activity concentration (AC50) at Cytochrome P450 2D6 is 10 µM (inconclusive).
As for `C[N+]1(C)CCc2cc3c(cc2[C@@H]1[C@@H]1OC(=O)c2c1ccc1c2OCO1)OCO3`, the half-maximal activity concentration (AC50) on Cytochrome P450 2D6 is 31.6 µM (inconclusive).
For `CC(C)(C)c1ccc(OCc2ccc(C(=O)Nc3cccnc3)o2)cc1`, the EC50 in test [1] and in test [2] was > 300 µM (not active) in each case.
As to `COc1ccc(C=C2C(=O)OC(C)(C)OC2=O)cc1OC`, the EC50 in [1] and in [2] was > 300 µM (not active) throughout.
`CCC(C)C(NC(=O)OCc1ccccc1)C(=O)OCN1C(=O)c2ccccc2C1=O` (centres undefined): the AC50 on Cytochrome P450 2D6 is 0.631 µM (inconclusive).
Still for that read-out and setting: under `CC(=O)Nc1c(S(=O)(=O)c2ccccc2)c2nc3ccccc3nc2n1Cc1ccccc1` stands 25.1 µM (inconclusive).
`C=CCn1cc(C=C2C(=O)NC(=O)NC2=O)c2ccccc21`: the EC50 was > 300 µM (not active) in test [1] and 112 µM (inconclusive) in test [2].
Taken in the same sequence, the figures for `Cn1ncc2c(NNC(=O)Cc3ccccc3)ncnc21` were > 300 µM (not active) and 10.5 µM (active).
`C[C@H](NC(C)(C)C)C(=O)c1cccc(Cl)c1`: the half-maximal activity concentration (AC50) at Cytochrome P450 2D6 was 31.6 µM (inconclusive) and 6.31 µM (inconclusive); on Cytochrome P450 2C19, 15.8 µM (inconclusive) and 3.16 µM (inconclusive).
Regarding `C=CCNC(=O)/C(=C\C=C\c1ccccc1)NC(=O)c1ccc(OCCCC)cc1`, the AC50 at Cytochrome P450 2D6 is 4.47 µM (inconclusive).
Still for that read-out and setting: under `Cc1noc(C)c1-c1ccc2ncnc(N(C)Cc3ccco3)c2c1` stands 20 µM (inconclusive).
For the compound `O=C(c1ccco1)N1CCC2(CC1)CCN(c1ccccc1)CC2`, the AC50 on Cytochrome P450 2D6 is 25.1 µM (inconclusive).
On the same count and under the same terms, under `CCC1(C)CC(CCNS(=O)(=O)c2ccc(C)cc2)(c2ccc(C)cc2)CCO1` (centres undefined) stands 28.2 µM (inconclusive).
Turning to `O=C1NCC2=C1C(c1ccc(Br)cc1)Nc1ccccc1N2` (centres undefined), in [5], the EC50 is > 260 µM (inactive). For the same compound, the results for the AC50 at Cytochrome P450 2D6 and at Cytochrome P450 3A4 were 2.24 µM (inconclusive) and 25.1 µM (inconclusive), respectively.
With `CCCC[C@@H]1C[C@H]1C(NC(=O)c1ccco1)c1ccc(C(=O)OC)cc1` (some centres undefined), on Cytochrome P450 2D6, the concentration at half-maximal activity (AC50) was 25.1 µM (inconclusive).
Turning to `C#CCCCCCCCCCCCCCCCC(=O)O`, the AC50 at Cytochrome P450 2D6 was 20 µM (inconclusive); on Cytochrome P450 2C19, 25.1 µM (inconclusive).
`CC(=O)/N=c1\c(C#N)cc2c(=O)n3cccc(C)c3nc2n1CCCOC(C)C`: the concentration for a half-maximal effect (EC50) in test [1] is given as > 300 µM (not active).
As for `Cc1ccc(S(=O)(=O)N[C@@H](CCCCN)C(=O)CCl)cc1`, the AC50 on Cytochrome P450 2D6 is 25.1 µM (inconclusive).
`CCOC(=O)c1c(-n2c(C)cc(/C=C3/C(=O)NC(=O)N(CC)C3=O)c2C)sc2c1CCCC2`: the results for the EC50 in test [1] and in [2] were 25.1 µM (active) and 29.8 µM (active), respectively.

Usually EC50 stands for the concentration at which the effect is half-maximal. Usually AC50 stands for the concentration giving half of the maximal activity seen.
